In US10517889B2, “Modulators of SMAD7 expression” (Ionis Pharmaceuticals, Inc., priority 2017, dated 2019):
Strand notation (5' to 3'): a small letter for the sugar, then the base; units joined by * are phosphorothioate-linked, units joined directly phosphodiester-linked; [ ] holds rarer units or linkages, { } end groups; capitals alone tell only the bases. e = 2'-O-(2-methoxyethyl) (MOE); [5mC] = 5-methylcytosine; d = 2'-deoxy (DNA)

Legend:
human SMAD7 mRNA [1] = assay: Antisense inhibition of human SMAD7 mRNA expression in Hep3B cells by 5-10-5 MOE gapmers, single concentration, electroporation, RT-PCR (Example 1, Study 1 and 2); format: cell-based; conditions: for % Inhibition: Study 2, electroporation with 15,000 nM antisense oligonucleotide
How it was run: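 Readout is percent SMAD7 mRNA inhibition versus untreated cells, measured by qRT-PCR (RTS5062) and corrected for total RNA by RIBOGREEN. Oligonucleotide, 5,000 nM or 15,000 nM, was delivered by electroporation into Hep3B cells at 20,000 per well. RNA was collected about 24 h later.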

human SMAD7 mRNA [2] = assay: Dose-dependent inhibition of human SMAD7 mRNA expression in Hep3B cells (Example 3, Study 1 and 2); format: cell-based; conditions: electroporation; for % inhibition of SMAD7 mRNA expression: approximately 16 hours; for IC50: Study 1 (312.5-20000 nM)
How it was run: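 Hep3B cells, 20,000 per well, electroporated with antisense oligonucleotide at 0.31, 1.25, 5.00 or 20.00 μM (first series) or 0.74, 2.22, 6.67 or 20.00 μM (second series). After ~16 h, SMAD7 mRNA measured by RT-qPCR (RTS5062), normalised to RIBOGREEN total RNA. Percent inhibition vs untreated cells; IC50 derived.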

[3] = electroporation, 15,000 nM antisense oligonucleotide (Study 2), 5-10-5 MOE gapmers targeting SEQ ID NO: 1 and 2
[4] = 312.5 nM, Study 1, relative to untreated control cells
[5] = 5-10-5 MOE gapmers targeting SEQ ID NO: 1 and 2

| Substance | % Inhibition of SMAD7 mRNA (human SMAD7 mRNA [1]; electroporation with 15,000 nM antisense oligonucleotide (Study 2), 5-10-5 MOE gapmers targeting SEQ ID NO: 1 and 2) [%] | % inhibition of SMAD7 mRNA expression (human SMAD7 mRNA [1]; [3]) [%] | % inhibition of SMAD7 mRNA expression (human SMAD7 mRNA [2]; [4]) [%] | % inhibition of SMAD7 mRNA expression (human SMAD7 mRNA [2]; 1250.0 nM, Study 1) [%] | % inhibition of SMAD7 mRNA expression (human SMAD7 mRNA [2]; 5000.0 nM, Study 1) [%] | % inhibition of SMAD7 mRNA expression (human SMAD7 mRNA [2]; 20000.0 nM, Study 1) [%] | IC50 (human SMAD7 mRNA [2]) [µM] | % Inhibition (human SMAD7 mRNA [1]; [5]) [%] | % inhibition of SMAD7 mRNA expression (human SMAD7 mRNA [1]; electroporation, 5,000 nM, approximately 24 hours, relative to untreated control cells, gapmers targeting SEQ ID NO: 1 and 2) [%] | % inhibition of SMAD7 mRNA expression (human SMAD7 mRNA [1]; electroporation, 15,000 nM, approximately 24 hours, relative to untreated control cells, gapmers targeting SEQ ID NO: 1 and 2) [%] |
| --- | --- | --- | --- | --- | --- | --- | --- | --- | --- | --- |
| 771776 (antisense e[5mC]*eT*e[5mC]*eA*eG*d[5mC]*dA*dA*dG*d[5mC]*dT*d[5mC]*dA*dG*dT*eT*e[5mC]*e[5mC]*eT*eG) [compound 771776] | 54 | 38 | 10 | 13 | 36 | 67 | 9 | – | – | – |
| 771777 (antisense e[5mC]*e[5mC]*e[5mC]*eT*e[5mC]*dA*dG*dT*d[5mC]*dT*d[5mC]*dA*dG*dA*dT*eA*eA*e[5mC]*eA*eG) [compound 771777] | – | 50 | 0 | 0 | 27 | 50 | 8 | – | – | – |
| 771778 (antisense eT*eG*eA*eG*eT*dA*dA*dA*d[5mC]*dA*dA*dT*dA*d[5mC]*d[5mC]*e[5mC]*eT*e[5mC]*eA*eG) [compound 771778] | – | 66 | 48 | 0 | 37 | 55 | > 20 | – | – | – |
| 771782 (antisense eT*eA*eG*eG*eA*d[5mC]*dT*dG*dG*dA*dA*dG*dA*dG*d[5mC]*eT*eT*eT*eG*eG) [compound 771782] | – | – | 0 | 9 | 27 | 38 | > 20 | 50 | – | – |
| 771786 (antisense eA*eG*e[5mC]*eT*e[5mC]*dA*dA*dA*d[5mC]*dT*dT*dT*dG*dA*dA*eG*e[5mC]*e[5mC]*eT*eT) [compound 771786] | – | 56 | 2 | 0 | 53 | 40 | > 20 | – | – | – |
| 771788 (antisense e[5mC]*e[5mC]*eA*eA*e[5mC]*dT*d[5mC]*dT*dG*dA*dA*d[5mC]*dG*dG*dA*eA*eA*eG*eA*eA) [compound 771788] | – | – | 1 | 0 | 0 | 0 | > 20 | 30 | – | – |
| 771793 (antisense eA*eA*eG*eT*e[5mC]*d[5mC]*d[5mC]*dT*dA*dA*d[5mC]*dG*dA*d[5mC]*d[5mC]*eA*eG*eG*e[5mC]*e[5mC]) [compound 771793] | – | 58 | 16 | 33 | 38 | 57 | 12 | – | – | – |
| 771794 (antisense eG*eA*eA*eG*e[5mC]*dA*dA*dG*dT*d[5mC]*dA*d[5mC]*dT*dG*d[5mC]*e[5mC]*eT*eT*e[5mC]*eT) [compound 771794] | – | 68 | 0 | 0 | 27 | 41 | > 20 | – | – | – |
| 771795 (antisense e[5mC]*eG*eT*e[5mC]*eT*dG*d[5mC]*dG*dG*d[5mC]*dA*dA*dA*dA*d[5mC]*e[5mC]*e[5mC]*eA*e[5mC]*e[5mC]) [compound 771795] | – | – | 9 | 22 | 51 | 58 | 8 | 59 | 53 | – |
| 771797 (antisense eG*e[5mC]*eA*e[5mC]*eA*dG*dA*d[5mC]*dT*dG*d[5mC]*d[5mC]*dA*dA*dA*eT*e[5mC]*eA*e[5mC]*eA) [compound 771797] | – | – | 1 | 0 | 15 | 35 | > 20 | – | – | 62 |
| 771799 (antisense e[5mC]*eT*eT*e[5mC]*e[5mC]*dA*dA*d[5mC]*dA*d[5mC]*dA*dT*dG*d[5mC]*dT*e[5mC]*eT*eG*e[5mC]*eA) [compound 771799] | – | – | 0 | 8 | 28 | 48 | > 20 | 57 | – | – |
